Laboratory results taken from patent US9833393B2, “Method and compositions for treating skin” (ELC Management LLC, priority 2015, dated 2017).

Tested on: per1 gene expression
Assay: per1 gene expression activity, per1-luciferase reporter plasmid in transfected keratinocytes
Type: cell-based, human
Conditions: NHEK, 16 hours incubation, luminescence
Description: Normal human epidermal keratinocytes (NHEK) were diluted in EpiLife Media MEP1500CA with supplement S001-5 added (Gibco, Cascade Biologics, Invitrogen) to form a concentration of 3×10^4 and plated onto a black walled 96 well microtiter plate by adding 100 μl in each well. The plate was incubated for 3 hours at 37° C. in 5% CO2. The media was removed and remaining adhered cells rinsed with EpiLife Media MEP1500CA, supplement free. A plasmid solution was prepared by diluting Tris-EDTA pH 8.0 buffer with plasmid pGL4.11 (DNA 2.0, Carlsbad, Calif.) to form a 1 mg/ml solution. This plasmid contained a per1 gene sequence and a luciferase reporter gene sequence. A transfection mixture was prepared by diluting EpiLife Media MEP1500CA, supplement free, to form a solution with 0.31 μg/ml of plasmid (obtained by adding appropriate amount of plasmid solution prepared above), 1.28% Plus™ Reagent (Catalog No. 11514-015, Invitrogen, Carlsbad, Calif.), and 3.22% Lipofectamine™ Transfection Reagent (Catalog No. 18324-012, Invitrogen, Carlsbad, Calif.). Transfection mixture, […] to each well and the plate incubated for 4 hours at 37° C. in 5% CO2. Then 80 μl of EpiLife Media MEP1500CA with supplement S001-5 was added to the well containing the control (media alone), the transfection mixture control (transfection mixture without any active ingredient). Test wells and transfection control wells. To the test wells 80 μl of test material solution (test material diluted in EpiLife Media MEP1500CA with supplement S001-5) was added. The wells were incubated for 16 hours at 37° C. in 5% CO2. Immediately prior to reading, Bright-Glo™ (Pro-Mega, Madison Wis.) was added to each well plate in the same volume as is currently in the well (e.g. a 1:1 dilution). Luminescence was measured in an LMax™ Microplate Luminometer (Molecular Devices, Sunnyvale, Calif.).

increase in per1 (0.01% concentration) [%] | increase in per1 (0.05% concentration) [%] | increase in per1 (0.1% concentration) [%] | Compound | increase in per1 (100 uM concentration) [%]
0 | 0 | 0 | alpha bisabolol | –
– | – | – | COc1ccc2[nH]cc(CCNC(C)=O)c2c1 [melatonin] | 39.2
